Counter-ions that a name gives are not always drawn.

Broadly, the IC50 is the concentration that gives 50% inhibition. Read a low IC50 as greater potency in that assay.

For the assay, the target named is T1, CCR3 (Homo sapiens, UniProt P51677).
T1 sequence (P51677 1-355): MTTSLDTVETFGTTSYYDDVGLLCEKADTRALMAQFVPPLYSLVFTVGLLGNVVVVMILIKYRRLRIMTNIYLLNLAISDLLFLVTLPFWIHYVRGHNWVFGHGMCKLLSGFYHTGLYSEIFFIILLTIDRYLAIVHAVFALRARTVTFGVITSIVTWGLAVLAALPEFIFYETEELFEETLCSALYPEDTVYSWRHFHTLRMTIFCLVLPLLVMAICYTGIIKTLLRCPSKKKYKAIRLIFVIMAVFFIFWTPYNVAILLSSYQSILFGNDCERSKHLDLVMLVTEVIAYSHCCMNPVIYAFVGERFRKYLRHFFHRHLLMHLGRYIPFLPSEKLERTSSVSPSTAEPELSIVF
Nature of the assay: Assay for determining CCR3 binding activity. To be noted: assay disclosed in U.S. Pat. No. 6,303,593 or 6,538,002. The source says:
Cell lines for expressing the receptor of interest include those naturally expressing the receptor, such as […] or THP-1, or a cell engineered to express a recombinant receptor, such as CHO, RBL-2H3, or HEK-293. For example, a CCR3 transfected AML14.3D10 cell line has been placed on restricted deposit with American Type Culture Collection as ATCC No. CRL-12079.
The CCR3 binding activity of representative compounds of the present invention can be determined via the assay disclosed in U.S. Pat. No. 6,303,593 or U.S. Pat. No. 6,538,002.
`CCc1onc2c1CCC21CCN(C[C@H]2C[C@H](N(C)[C@@H](C(=O)O)C(C)C)C[C@@H]2c2cccc(F)c2)CC1` [Example 12, N-Methyl-N-(1-(R)-3-(S)-((3-ethyl-4,5-dihydrospiro[6H-cyclopent[c]isoxazole-6,4′-piperidin-1′-yl])methyl)-4-(S)-(3-fluorophenyl)cyclopent-1-yl)-(R)-valine trihydrochloride salt] had an IC50 of less than 10 µM.
For `CCc1nn(C)c2c1CCC21CCN(C[C@H]2C[C@H](N(C)[C@@H](C(=O)O)C(C)C)C[C@@H]2c2cccc(F)c2)CC1` [Example 3, N-Methyl-N-(1-(R)-3-(S)-((3-ethyl-1-methyl-4,5-dihydrospiro[cyclopentapyrazole-6(1H),4′-piperidin-1′-yl])methyl)4-(S)-(3-fluorophenyl)cyclopent-1-yl)-(R)-valine trihydrochloride salt], the IC50 is less than 10 µM.
Compound `CCn1cc2c(n1)CCC21CCN(C[C@H]2C[C@H](N(C)[C@@H](C(=O)O)C(C)C)C[C@@H]2c2cccc(F)c2)CC1` [Example 15, N-Methyl-N-(1-(R)-3-(S)-((2-ethyl-5,6 dihydrospiro[cyclopentapyrazole-4(2H),4′-piperidin-1′-yl])methyl)-4-(S)-(3-fluorophenyl)cyclopent-1-yl)-(R)-valine trihydrochloride salt] yielded an IC50 of less than 10 µM.
In turn, `CCn1ncc2c1C1(CC2)CCN(C[C@H]2C[C@H](N(C)[C@@H](C(=O)O)C(C)C)C[C@@H]2c2cccc(F)c2)CC1` [Example 6, N-Methyl-N-(1-(R)-3-(S)-((1-ethyl-4,5-dihydrospiro[cyclopentapyrazole-6(1H),4′-piperidin-1′-yl])methyl)-4-(S)-(3-fluorophenyl)cyclopent-1-yl)-(R)-valine trihydrochloride salt] came in with an IC50 of less than 10 µM.
The compound `CCc1nn(CC)c2c1C1(CC2)CCN(C[C@H]2C[C@H](N(C)[C@@H](C(=O)O)C(C)C)C[C@@H]2c2cccc(F)c2)CC1` [Example 16, N-Methyl-N-(1-(R)-3-(S)-((1,3-diethyl-5,6 dihydrospiro[cyclopentapyrazole-4(1H),4′-piperidin-1′-yl])methyl)-4-(S)-(3-fluorophenyl)cyclopent-1-yl)-(R)-valine trihydrochloride salt] returned a half-inhibitory concentration (IC50) of less than 10 µM.
As to `CCc1nn(CC)c2c1CCC21CCN(C[C@H]2C[C@H](N(C)[C@@H](C(=O)O)C(C)C)C[C@@H]2c2ccc(F)c(F)c2)CC1` [Example 25, N-Methyl-N-(1-(R)-3-(S)-((1,3-diethyl-4,5-dihydrospiro[cyclopentapyrazole-6(1H),4′-piperidin-1′-yl])methyl)-4-(S)-(3,4-difluorophenyl)cyclopent-1-yl)-(R)-valine trihydrochloride salt], the IC50 was less than 10 µM.
The result for `CCc1nn(CC)c2c1CCC21CCN(C[C@H]2C[C@H]([C@H](NC(C)(C)CC)C(=O)O)C[C@@H]2c2cccc(F)c2)CC1` [Example 45, 2-(S)-(1-(R)-3-(S)-((1,3-Diethyl-4,5-dihydrospiro[cyclopentapyrazole-6(1H),4′-piperidin-1′-yl])methyl)-4-(S)-(3-fluorophenyl)cyclopent-1-yl)-2-(1,1-dimethylprop-1-ylamino)acetic acid trihydrochloride salt] reads less than 10 µM; that for `CCc1nn(CC)c2c1CCC21CCN(C[C@H]2C[C@H]([C@@H](C(=O)O)N(C)C(C)(C)CC)C[C@@H]2c2cccc(F)c2)CC1` [Example 46, 2-(S)-(1-(R)-3-(S)-((1,3-Diethyl-4,5-dihydrospiro[cyclopentapyrazole-6(1H),4′-piperidin-1′-yl])methyl)-4-(S)-(3-fluorophenyl)cyclopent-1-yl)-2-((1,1-dimethylprop-1-yl)methylamino)acetic acid trihydrochloride salt], less than 10 µM; that for `CCc1c2c(nn1CC)C1(CC2)CCN(C[C@H]2C[C@H](N(C)[C@@H](C(=O)O)C(C)C)C[C@@H]2c2cccc(F)c2)CC1` [Example 2, N-Methyl-N-(1-(R)-3-(S)-((2,3-diethyl-4,5-dihydrospiro[cyclopentapyrazole-6(2H),4′-piperidin-1′-yl])methyl)-4-(S)-(3-fluorophenyl)cyclopent-1-yl)-(R)-valine trihydrochloride salt], less than 10 µM.
Under `CCc1nn(CC)c2c1CCC21CCN(C[C@H]2C[C@H](N(CC)[C@@H](C(=O)O)C(C)C)C[C@@H]2c2cccc(F)c2)CC1` [Example 18, N-Ethyl-N-(1-(R)-3-(S)-((1,3-diethyl-4,5-dihydrospiro[cyclopentapyrazole-6(1H),4′-piperidin-1′-yl])methyl)-4-(S)-(3-fluorophenyl)cyclopent-1-yl)-(R)-valine trihydrochloride salt] stands less than 10 µM; under `CCc1nn(CC)c2c1CCC21CCN(C[C@H]2C[C@H](N(C)[C@@H](C(=O)O)C(C)(C)C)C[C@@H]2c2cccc(F)c2)CC1` [Example 20, N-Methyl-N-(1-(R)-3-(S)-((1,3-diethyl-4,5-dihydrospiro[cyclopentapyrazole-6(1H),4′-piperidin-1′-yl])methyl)-4-(S)-(3-fluorophenyl)cyclopent-1-yl)-(R)-t-butylglycine trihydrochloride salt], less than 10 µM; under `CCc1nn(CC)c2c1CCC21CCN(C[C@H]2C[C@H](N(C)[C@@H](C(=O)O)C(C)C)C[C@@H]2c2cccc(F)c2)CC1` [Example 1, N-Methyl-N-(1-(R)-3-(S)-((1,3-diethyl-4,5-dihydrospiro[cyclopentapyrazole-6(1H),4′-piperidin-1′-yl])methyl)-4-(S)-(3-fluorophenyl)cyclopent-1-yl)-(R)-valine trihydrochloride salt], less than 10 µM.

Values taken from patent US7091211B2, “Cyclopentyl modulators of chemokine receptor activity” (Merck & Co., Inc., priority 2003, dated 2006).
